According to patent US20140073793A1, “Germanium-containing camptothecin analogues” (BioNumeric Pharmaceuticals, Inc., priority 2012, published 2014):
Read-outs that look alike come from different tables or passages of the source.

Columns and labels:
A2780/DX5 cells = test: cells; type: cell-based, human
Experimental: (§1) Wild type human ovarian cancer cells (A2780/WT) and doxorubicin-resistant human ovarian cancer cells (A2780/DX5) were cultured in RPMI 1640 medium supplemented with 10% fetal bovine serum and 2 mM glutamine, and grown in a 37° C. incubator with 5% CO2. BNP1350 (also designated 7-[2-trimethylsilyl)ethyl]-20(S)-camptothecin; BNP1350; and Karenitecin®); BNP1394 (also designated 7-[2′-trimethylgermanyl]ethyl-20(S) camptothecin; Topotecan; and 9-NH2-camptothecin were synthesized and purified at BioNumerik Pharmaceuticals, Inc., and dissolved in DMSO for use in cytotoxicity experiments where inhibition of cell growth was measured using the sulforhodamine B (SRB) assay to assess cytotoxicity and absorbance at 570 nm (A570) in order to calculate the percentage of cell control (or percent cell survival) SRB assay. See. e.g., Skehan P., Stieng R., Scudiero D., et al. New colorimetric cytotoxicity assay for anticancer-drug screen. J. Natl. Cancer Inst. 82:1107-1112 (1990)).
(§2) Briefly, cells were seeded (500 cells/well in 100 μL volume) to 96-well microliter plates and allowed to attach for 24 hours prior to treatment with BNP1350, BNP1394, Topotecan, and 9-NH2-camptothecin for 2 hours. Following this 2 hour treatment, BNP1350, BNP1394, Topotecan, and 9-NH2-camptothecin were removed, cells were washed with drug-free media (200 μL) and then drug-free media (200 μL) was added to the cells and cells were allowed to continue growing at 37° C. with 5% CO2 before the SRB assay was performed (total experiment time from time of seeding was 5 days, during which a total of five (5) cell-doublings occurred).
(§3) Wild-type human ovarian cancer cells (A2780/WT) and doxorubicin-resistant human ovarian cancer cells (A2780/DX5) were cultured in RPMI 1640 medium supplemented with 10% fetal bovine serum and 2 mM L-glutamine, and grown in a 37° C. incubator with 5% CO2. Population doubling times for the two cell lines used in this study encompassed a total of five cell doublings corresponding to approximately 5 days for A2780/WT and A2780/DX5 cells. Both cell lines were maintained as monolayered cultures in T-25 or T-75 flasks and then seeded to microliter plate wells for experiments described herein.
(§4) In brief, cells were seeded (500 cells/well in 100 μL total volume) into 96-well microliter plates and allowed to attach for 24 hours prior to treatment with BNP1350, BNP1394, Topotecan, or 9-NH2-camptothecin for 2 hours. The aforementioned compounds were dissolved in DMSO for use in cytotoxicity experiments where inhibition of cell growth was measured using the SRB assay.
(§5) Following this 2 hour drug treatment, the BNP1350, BNP1394, Topotecan, and 9-NH2-camptothecin were removed, cells were washed with drug-free media (200 μL) and then drug-free media (200 μL) was added to the cells and cells were allowed to continue growing at 37° C. with 5% CO2 before the SRB assay was performed (total experiment time from time of seeding was 5 days, during which time a total of 5 cell doublings had occurred).
(§6) The sulforhodamine B (SRB) cytotoxicity assay (see, Skehan P, et al., New colorimetric cytotoxicity assay for anticancer-drug screening. J. Natl. Cancer Inst. 82:1107-1112 (1990)) was used to determine the cytotoxic effects of BNP1350, BNP10120 or BNP10121 on cell growth in vitro. Briefly, after the medium was aspirated from individual plate wells, trichloroacetic acid (100 μL of 10.0% solution) was added to each well, and the plates were incubated at 4° C. for at least 1 hour. The plates were washed five-times with water using an automated microplate washer (Model EL 404, Bio-Tek Instruments), SRB solution (100 μL of 0.4 grams SRB dissolved in 100 mL 1.0 percent acetic acid) was added, and plates remained at room temperature for 15 minutes. The plates were then washed five-times using acetic acid (1.0%), air dried, and bound dye was solubilized in Tris base (150 μL, 10 mM). […]

A2780/WT cells = test: cells; type: cell-based, human
Experimental: as §1, §2, §3, §4, §5, §6

[1] = 2 hour drug treatment, SRB at 5 days, read-out: IC50 Test 1
[2] = 2 hour drug treatment, SRB at 5 days, read-out: IC50 Test 2
[3] = 2 hour drug treatment, SRB at 5 days, read-out: IC50 Test 3
[4] = 2 hour drug treatment, SRB at 5 days, read-out: IC50 Test 4
[5] = 2 hour drug treatment, SRB at 5 days, read-out: IC50 Test 5
[6] = average of the tests, read-out: IC50 Average
[7] = 2 hour drug treatment, SRB at 5 days, read-out: IC50 Test 6
[8] = average of Tests 1-6, read-out: IC50 Average
[9] = Homo sapiens, 2 hour drug treatment, SRB at 5 days, read-out: IC50 Test 1
[10] = Homo sapiens, 2 hour drug treatment, SRB at 5 days, read-out: IC50 Test 2
[11] = Homo sapiens, 2 hour drug treatment, SRB at 5 days, read-out: IC50 Test 3
[12] = Homo sapiens, 2 hour drug treatment, SRB at 5 days, read-out: IC50 Test 4
[13] = Homo sapiens, 2 hour drug treatment, SRB at 5 days, read-out: IC50 Test 5

| Structure (SMILES) | inhibition of cell growth (in words) (A2780/DX5 cells) | IC50 (A2780/DX5 cells; [1]) | IC50 (A2780/DX5 cells; [2]) | IC50 (A2780/DX5 cells; [3]) | IC50 (A2780/DX5 cells; [4]) | IC50 (A2780/DX5 cells; [5]) | IC50 (A2780/DX5 cells; [6]) | inhibition of cell growth (in words) (A2780/WT cells) | IC50 (A2780/WT cells; [1]) | IC50 (A2780/WT cells; [2]) | IC50 (A2780/WT cells; [3]) | IC50 (A2780/WT cells; [4]) | IC50 (A2780/WT cells; [5]) | IC50 (A2780/WT cells; [7]) | IC50 (A2780/WT cells; [8]) | IC50 values (in words) (A2780/DX5 cells) | IC50 values (in words) (A2780/WT cells) | other results |
| --- | --- | --- | --- | --- | --- | --- | --- | --- | --- | --- | --- | --- | --- | --- | --- | --- | --- | --- |
| CC[C@@]1(O)C(=O)OCc2c1cc1n(c2=O)Cc2cc3c(N)cccc3nc2-1 [9-NH2-camptothecin, 9-amino camptothecin] | inhibitors | 600 nM | 250 nM | 250 nM | 550 nM | 600 nM | 450 nM | inhibitors | 150 nM | 90 nM | 150 nM | 200 nM | 250 nM | 90 nM | 155 nM | – | – | – |
| CC[C@@]1(O)C(=O)OCc2c1cc1n(c2=O)Cc2c-1nc1ccccc1c2CC[Si](C)(C)C [BNP1350] | inhibitors | 15 nM | 15 nM | 15 nM | 24 nM | 10 nM | 16 nM | inhibitors | 15 nM | 15 nM | 15 nM | 20 nM | 13 nM | 16 nM | 15 nM | nanomolar | nanomolar | – |
| CC[C@@]1(O)C(=O)OCc2c1cc1n(c2=O)Cc2c-1nc1ccccc1c2C[CH2][Ge]([CH3])([CH3])[CH3] [BNP1394, 7-[2′-trimethylgermanyl]ethyl-20(S) camptothecin] | inhibitors | – | – | – | – | – | – | inhibitors | – | – | – | – | – | – | – | nanomolar | nanomolar | – |
| CC[C@@]1(O)C(=O)OCc2c1cc1n(c2=O)Cc2cc3c(CN(C)C)c(O)ccc3nc2-1 [Topotecan, 9-dimethylaminomethyl-10-hydroxy camptothecin] | inhibitors | – | – | – | – | – | – | inhibitors | – | – | – | – | – | – | – | – | – | IC50 (A2780/DX5 cells; [9]): 550 nM; IC50 (A2780/DX5 cells; [10]): 800 nM; IC50 (A2780/DX5 cells; [11]): 2000 nM; IC50 (A2780/DX5 cells; [12]): 1000 nM; IC50 (A2780/DX5 cells; [13]): 2000 nM; IC50 (A2780/DX5 cells; Homo sapiens, average of the tests, read-out: IC50 Average): 1270 nM; IC50 (A2780/WT cells; [9]): 350 nM; IC50 (A2780/WT cells; [10]): 200 nM; IC50 (A2780/WT cells; [11]): 300 nM; IC50 (A2780/WT cells; [12]): 600 nM; IC50 (A2780/WT cells; [13]): 900 nM; IC50 (A2780/WT cells; Homo sapiens, 2 hour drug treatment, SRB at 5 days, read-out: IC50 Test 6): 600 nM; IC50 (A2780/WT cells; Homo sapiens, average of Tests 1-6, read-out: IC50 Average): 492 nM |
